Experimental data from patent US20130005747A1, “METHOD FOR SELECTING A CANCER THERAPY” (Cyclacel Limited, priority 2010, published 2013).

Experiments:
Test in all cases: Fractional growth, 72 h seliciclib
Assay type in all cases: cell-based, human
1A6 = 1A6 (Bladder), 15 μM seliciclib
Source text: (§1) A total of 270 human cancer cell lines from diverse cancer histopathologic types were investigated.

C-33 A = C-33 A (Cervix), 15 μM seliciclib
Source text: as §1

C-4 II = C-4 II (Cervix), 15 μM seliciclib
Source text: as §1

Ca Ski = Ca Ski (Cervix), 15 μM seliciclib
Source text: as §1

GCT = GCT (Miscellaneous), 15 μM seliciclib
Source text: as §1

GTL-16 = GTL-16 (Stomach), 15 μM seliciclib
Source text: as §1

HO-1-u-1 = HO-1-u-1 (Head & Neck), 15 μM seliciclib
Source text: as §1

HT115 = HT115 (Intestine), 15 μM seliciclib
Source text: as §1

HuCCT1 = HuCCT1 (Liver), 15 μM seliciclib
Source text: as §1

JHU-013 = JHU-013 (Head & Neck), 15 μM seliciclib
Source text: as §1

JHU-019 = JHU-019 (Head & Neck), 15 μM seliciclib
Source text: as §1

JHU-022 = JHU-022 (Head & Neck), 15 μM seliciclib
Source text: as §1

KMRC-1 = KMRC-1 (Kidney), 15 μM seliciclib
Source text: as §1

LU65A = LU65A (Lung: NSCLC), 15 μM seliciclib
Source text: as §1

MEL-JUSO = MEL-JUSO (Skin), 15 μM seliciclib
Source text: as §1

MES-SA = MES-SA (Uterus), 15 μM seliciclib
Source text: as §1

NAE = NAE (Skin), 15 μM seliciclib
Source text: as §1

NCI-H1792 = NCI-H1792 (Lung: NSCLC), 15 μM seliciclib
Source text: as §1

NCI-H1944 = NCI-H1944 (Lung: NSCLC), 15 μM seliciclib
Source text: as §1

NCI-H2030 = NCI-H2030 (Lung: NSCLC), 15 μM seliciclib
Source text: as §1

NCI-H2085 = NCI-H2085 (Lung: NSCLC), 15 μM seliciclib
Source text: as §1

NCI-H2170 = NCI-H2170 (Lung: NSCLC), 15 μM seliciclib
Source text: as §1

NCI-H522 = NCI-H522 (Lung: NSCLC), 15 μM seliciclib
Source text: as §1

NCI-H630 = NCI-H630 (Intestine), 15 μM seliciclib
Source text: as §1

PC-3 = PC-3 (Prostate), 15 μM seliciclib
Source text: as §1

PCI-4A = PCI-4A (Head & Neck), 15 μM seliciclib
Source text: as §1

PCI-6A = PCI-6A (Head & Neck), 15 μM seliciclib
Source text: as §1

Panc 03.27 = Panc 03.27 (Pancreas), 15 μM seliciclib
Source text: as §1

Panc 04.03 = Panc 04.03 (Pancreas), 15 μM seliciclib
Source text: as §1

Panc 08.13 = Panc 08.13 (Pancreas), 15 μM seliciclib
Source text: as §1

SK-MEL-37 = SK-MEL-37 (Skin), 15 μM seliciclib
Source text: as §1

SK-N-MC = SK-N-MC (Brain), 15 μM seliciclib
Source text: as §1

SKG-IIIb = SKG-IIIb (Cervix), 15 μM seliciclib
Source text: as §1

SNG-M = SNG-M (Uterus), 15 μM seliciclib
Source text: as §1

SW 156 = SW 156 (Kidney), 15 μM seliciclib
Source text: as §1

SW 48 = SW 48 (Intestine), 15 μM seliciclib
Source text: as §1

T.T = T.T (Esophagus), 15 μM seliciclib
Source text: as §1

CC[C@H](CO)Nc1nc(NCc2ccccc2)c2ncn(C(C)C)c2n1 [seliciclib, roscovitine]
Fractional Growth (1A6): 0.6475 | Fractional Growth (C-33 A): 0.5677 | Fractional Growth (C-4 II): 0.7489 | Fractional Growth (Ca Ski): 0.591 | Fractional Growth (GCT): 0.4799 | Fractional Growth (GTL-16): 0.6482 | Fractional Growth (HO-1-u-1): 0.4858 | Fractional Growth (HT115): 0.4837 | Fractional Growth (HuCCT1): 0.4559 | Fractional Growth (JHU-013): 0.2699 | Fractional Growth (JHU-019): 0.4229 | Fractional Growth (JHU-022): 0.6294 | Fractional Growth (KMRC-1): 0.554 | Fractional Growth (LU65A): 0.4627 | Fractional Growth (MEL-JUSO): 0.4945 | Fractional Growth (MES-SA): 0.3922 | Fractional Growth (NAE): 0.3413 | Fractional Growth (NCI-H1792): 0.4649 | Fractional Growth (NCI-H1944): 0.6921 | Fractional Growth (NCI-H2030): 0.3063 | Fractional Growth (NCI-H2085): 0.4597 | Fractional Growth (NCI-H2170): 0.4534 | Fractional Growth (NCI-H522): 0.6262 | Fractional Growth (NCI-H630): 0.7543 | Fractional Growth (PC-3): 0.4021 | Fractional Growth (PCI-4A): 0.3628 | Fractional Growth (PCI-6A): 0.5818 | Fractional Growth (Panc 03.27): 0.5632 | Fractional Growth (Panc 04.03): 0.4899 | Fractional Growth (Panc 08.13): 0.4222 | Fractional Growth (SK-MEL-37): 0.5209 | Fractional Growth (SK-N-MC): 0.283 | Fractional Growth (SKG-IIIb): 0.6636 | Fractional Growth (SNG-M): 0.3393 | Fractional Growth (SW 156): 0.467 | Fractional Growth (SW 48): 0.1123 | Fractional Growth (T.T): 0.1271
